Measured values published in patent publication US20190374506A1, “COMPOSITIONS AND METHODS FOR TREATING CANCER” (BETH ISREAL DEACONESS MEDICAL CENTER, priority 2016, published 2019).

Columns and labels:
[1] = test system: DU145 cells stably expressing MYC or vector control; test: Growth curves, MTT assay, DU145 cells stably expressing MYC or vector control; format: cell-based, human
[2] = test system: DU145 cells with PTEN depletion; test: Growth curves, MTT assay, DU145 cells with stable PTEN shRNA knockdown; format: cell-based, human; settings: two independent PTEN shRNAs, various doses of I3C for 5 Days
Text: (§1) FIG. 11D provides growth curves of DU145 cells, stably expressing vector control or two independent shRNAs, treated with various doses of I3C for 5 Days, and then assayed with colorimetric MTT assay (three experiments). Whether targeting WWP1/NEDD4-1, thereby enhancing PTEN dimerization and function, could offer a unique opportunity to treat MYC-driven cancers was investigated. […] As there is no small pharmacological inhibitor currently available to suppress/inhibit WWP1 activity, Indole-3-Carbinol (I3C), a potential WWP1 inhibitor, which suppresses the WWP1 activity through binding to its HECT domain, was used. First, to assess the on-target effects of I3C towards WWP1, Wwp1^−/− MEFs were used. […] Additionally, two independent PTEN stably knocked-down cells were generated.

[3] = test system: AKT activation in prostate spheres; test: Western blot analysis of prostate spheres at P1 passage; format: cell-based, mouse; settings: 20 μM I3C for 3 Days (low dose)
Protocol: FIG. 11G is a Western blot analysis of prostate spheres at P1 passage treated with 20 μM I3C for 3 Days.

Hi-Myc mouse prostates = test: Preclinical study of I3C in Hi-Myc mice (prostate cancer); format: in vivo
Protocol: FIGS. 12A and 12B show hematoxylin and eosin (H&E) staining of mouse prostate and gross anatomy of representative Hi-Myc urogenital tract. Quantification of percentage of normal epithelium in Hi-Myc mice treated with vehicle or I3C at 6 months as shown in (A) (right). The mice at 5 months of age were treated I.P. with I3C (20 mg/kg), three times a week for 1 month starting on day zero. (n=4 per genotype) scale bar, […].
FIG. 12C provides a Western blot analysis of dorsal lateral prostate (DLP) lysates from Hi-Myc mice as in (A).
The boxed areas are enlarged three fold to show the subcellular localization of PTEN on the right. Arrow indicates the PTEN plasma membrane localization. Bar, 50 μm.
To examine the functional relevance of the WWP1/NEDD4-1/PTEN crosstalk in vivo, preclinical studies with I3C in Hi-Myc mice were performed. The expression of Hi-Myc in mouse prostate results in complete penetrance of prostatic intraepithelial neoplasia (PIN) and progresses into invasive adenocarcinoma within 5 to 12 months of age. To this end, cohorts of Hi-Myc mice at 5 months of age were treated with either the vehicle or I3C for one month.
The Beth Israel Deaconess Medical Center IACUC Committee on Animal Research approved all animal experiments. The transgenic mice used in these studies (Hi-Myc-mice), in which the prostate specific expression of human c-Myc is driven by the rat probasin promoter with two androgen response elements, were obtained from the Mouse Repository of National Cancer Institute. 9 mice per genotype were randomly chosen and used to examine the tumour at the indicated age. Wwp1−/−mice and its paired Wwp1+/+ mice (on a C57/BL6 background) were obtained from Dr. L. Matesic (University of South Carolina, Columbia, SC, USA) (Shu et al., 2013). The pathologist determined the histological grade blindly.
The mice were treated I.P. with I3C dissolved in 5% DMSO (20 mg/kg), three times a week for […] starting on day zero. I.P. administration allows I3C to achieve maximal systemic exposure.

Hi-Myc prostate spheres = test: Prostate sphere forming ability of WT or Hi-Myc prostatic epithelial cells; format: cell-based, mouse; settings: Hi-Myc spheres at P1 passage, 10 μM I3C for 3 Day (low dose)
LNCaP cells (PTEN-null) = test: Cell growth, LNCaP cells; format: cell-based, human
Text: as §1, with “Whether” for “FIG. 11D provides growth curves of DU145 cells, stably expressing vector control or two independent shRNAs, treated with various doses of I3C for 5 Days, and then assayed with colorimetric MTT assay (three experiments). Whether”

[4] = test system: PTEN subcellular localization in DU145 cells; test: Confocal immunofluorescence of PTEN subcellular localization in DU145 cells; format: cell-based, human; settings: 20 μM I3C for 4 Days
Protocol: FIG. 10D provides a panel of micrographs showing the effects of I3C on PTEN subcellular localization in DU145 cells. DU145 cells treated with 20 μM I3C for 4 Days. Confocal images of DU145 cells treated with/without I3C were stained with DAPI and the indicated antibodies. Bar, 20 μm. Whether targeting WWP1/NEDD4-1, thereby enhancing PTEN dimerization and function, could offer a unique opportunity to treat MYC-driven cancers was investigated. […] As there is no small pharmacological inhibitor currently available to suppress/inhibit WWP1 activity, Indole-3-Carbinol (I3C), a potential WWP1 inhibitor, which suppresses the WWP1 activity through binding to its HECT domain, was used. First, to assess the on-target effects of I3C towards WWP1, Wwp1^-/- MEFs were used. […] Additionally, two independent PTEN stably knocked-down cells were generated. […] PC3 and DU145 cells stably expressing the indicated constructs were plated on coverslip. The following day, cells were washed with ice-cold PBS, fixed in 4% paraformaldehyde, permeabilized with 0.02% Triton X-100, and then blocked with PBS supplemented with 20% goat serum. Cells were incubated with anti-PTEN antibody (6H2.1, 1:100) from Cascade Bioscience, diluted in PBS containing 10% goat serum overnight and then with Alexa488-conjugated secondary antibody together with 1 μg/ml of DAPI for 1 hour. Images were acquired with a […] […]

NEDD4-1 = settings: previous study (Aronchik et al., 2014); read-out: calculated equilibrium dissociation constant (Kd) with NEDD4-1; cited from earlier work
[5] = Hi-Myc mice, I3C 20 mg/kg I.P., western blot

OCc1c[nH]c2ccccc12 [I3C, indole-3-carbinol]
cell growth upon overexpression of MYC ([1]; MYC-overexpressing DU145 cells, same low dose of I3C): became sensitized | cell growth of control cells ([1]; vector control DU145 cells, low dose of I3C): little effect on the cell growth | sensitivity of cells with PTEN depletion compared to control cells [2]: exhibited resistance | AKT activation driven by MYC expression ([3]; Hi-Myc prostate spheres): abolished AKT activation | apoptosis in Hi-Myc prostate spheres ([3]; Hi-Myc prostate spheres): concomitant apoptosis | AKT activation and apoptosis in WT prostate spheres ([3]; WT prostate spheres): not in WT prostate spheres | tumor size, DLP and AP (Hi-Myc mouse prostates; Hi-Myc mice 5 months of age, I3C 20 mg/kg I.P. three times a week for 1 month, dorsal lateral and anterior prostate): significantly reduced tumor size | tumor size, VP (Hi-Myc mouse prostates; Hi-Myc mice, I3C 20 mg/kg I.P. three times a week for 1 month, ventral prostate): less prominently | PTEN plasma membrane localization in prostate epithelial cells (IHC, DLP tissue) (Hi-Myc mouse prostates; Hi-Myc mice, I3C 20 mg/kg I.P., compared to vehicle): induced intense PTEN plasma membrane accumulation | histology of APs (Hi-Myc mouse prostates; Hi-Myc mice, I3C 20 mg/kg I.P., anterior prostate, H&E): completely disease-free | histology of DLPs: penetrance of invasive carcinoma (Hi-Myc mouse prostates; Hi-Myc mice, I3C 20 mg/kg I.P., dorsal lateral prostate, H&E): significantly lower penetrance | AKT activation in prostate lysates, AP and DLP (Hi-Myc mouse prostates; [5]): robustly inhibited AKT activation | PTEN protein level in prostate lysates (Hi-Myc mouse prostates; [5]): without affecting PTEN protein level | prostate sphere-forming ability (Hi-Myc prostate spheres): drastically suppressed | cell growth (LNCaP cells (PTEN-null)): only modestly suppressed cell growth | PTEN plasma membrane localization [4]: induced its plasma membrane accumulation | Kd (NEDD4-1): ~88.1 µM
